Results published in patent US11247993B2, “Pyridone derivative, composition and use as antiviral drug thereof” (priority 2018, dated 2022).

How the values were obtained:
[1] = tested on: influenza virus A/PR/8/34 (H1N1); test: organism not typed; assay type: cell-based; settings: MDCK cells, A/PR/8/34 (H1N1), 5 days, CCK8; read-out: EC50
MDCK cells = test: in vitro; assay type: cell-based
Description: Method for cytotoxicity study: The cytotoxicity assay and antiviral activity assay of the compounds were performed in parallel, except for the absence of virus, other experimental conditions were consistent with the antiviral activity assay. After 5 days of culture, the cell viability was measured using the cell viability detection kit CCK8. Raw data were used for calculating compound cytotoxicity (CC50) (see Table 1 for results).

O=C1c2c(O)c(=O)ccn2N([C@@H]2c3ccccc3SCc3c2ccc(F)c3F)[C@@H]2COCCN12 [Baloxavir acid, reference compound]
EC50 [1]: 1.4 nM | CC50 (MDCK cells): > 1000 nM
